The numbers were not newly measured in patent US11576871B2 (The Regents of the University of California, priority 2016, dated 2023), which cites them from elsewhere.

Data set [1] relates to intracellular cystine in circulating white blood cells.
For data set [2] the following is noted: children with cystinosis.

For the compound `NCCS` [cysteamine, Cysteamine], the “time to observed decrease in leukocyte cystine” value in data set [1] (delivery of cysteamine to the small intestine (WO 2007/089670)) was “within an hour”. For the same compound, the “depletion of intracellular cystine” value in data set [1] (taken regularly, measured in circulating white blood cells) is “up to 90%”.
Turning to `COc1ccc2c(c1)c(CC(=O)O)c(C)n2C(=O)c1ccc(Cl)cc1` [indomethacin], in data set [2], the “reduction of urine volume (and liquid consumption)” value is recorded as “about 30%”.
